According to publication PMC5853558, “De novo identification of lipid II binding lipopeptides with antibacterial activity against vancomycin-resistant bacteria” (Chemical Science, 2017):
Values after ≈ are worked out from the molar mass of the structure shown. *1 amine or outer side, *2 acyl side, *3 side chain or, on linkers, in order; H or OH if unused. Where a SMILES comes first, the peptide text is derived from it. Bridges are numbered along the chain shown (N, C = ends). [ ]: non-standard residue; d: D form. The star is where a group is joined. TBMB = c1c(C[*:1])cc(C[*:3])cc1C[*:2]; NHDecyl = CCCCCCCCCCN*

Legend:
M. luteus (NCTC2665) = assay: microbe, parasite or virus in culture; format: cell-based, Micrococcus luteus
In short: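 TSB microdilution MIC. Top final peptide 512 µg/ml, lipopeptides 64 µg/ml, DMSO 2%; cells grown to OD600 0.5, suspension at 1 x 10^6 CFU/ml added 1:1; shaken 250 rpm at strain's optimal temperature; DMSO-only control per strain.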

lipid II = assay: Lipid II antagonization assay; format: cell-based, M. luteus; parameters: key to Result with antagonist Lipid II: +: antagonization of antibiotic activity; -: no antagonization of antibiotic activity; conditions: for Result with antagonist Lipid II: Supplemental table S10, peptide at 4x MIC, antagonist at 4 molar equivalents, M. luteus 1 x 10^6 CFU/ml, 16 h at 30°C, growth observed visually; for Effect of pre-incubation with lipid II on antibacterial activity: premixed with an excess of lipid II before addition of a live culture of M. luteus
Experimental: (§1) To assess the role of lipid II in the mode of action of the lipopeptides a lipid II antagonization assay was employed.[18],[33] This assay was performed by premixing P8-D-C10 or the optimized P8-D-(S6R, R15A)-C10 with an excess of lipid II prior to addition of a live culture of M. luteus. […] To probe the stereochemical aspects of lipid II recognition by the optimized P8-D-(S6R, R15A)-C10 lipopeptide we also prepared and tested the corresponding enantiomeric L-peptide species P8-L-(S6R, R15A)-C10. […] Given that lipid II is a chiral biomolecule we had expected the enantiomeric lipopeptides to have different activities based on the assumption that they would interact differently with lipid II. To further investigate this phenomenon we employed the same lipid II antagonization assay described above. […] To explain this observation we hypothesize that the two enantiomeric peptides interact primarily with the pyrophosphate moiety of lipid II and are therefore less influenced by the chiral elements present elsewhere in the lipid II molecule. The pyrophosphate group is known to be a binding site for many natural occurring lipid II binding peptides.[15],[16] […] To test the hypothesis that both the P8-D-(S6R, R15A)-C10 and P8-L-(S6R, R15A)-C10 lipopeptides interact with the pyrophosphate moiety we performed an additional antagonizaiton experiment using C55-PP.
(§2) Section 4 Biological and biochemical experiments
(§3) 4.1 Minimum inhibitory concentration assay
(§4) MIC values were determined by using the broth microdilution method. Peptides were dissolved first in DMSO and diluted with broth so that the final peptide concentration was 1024 µg/ml and the DMSO concentration was 4%. Peptide serial dilutions were made in TSB in a polypropylene 96-wells plate using 50 µl volumes. An overnight culture of the organism of interest was diluted to and OD600 of 0.01 and grown until they reach 0.5. The culture was then diluted to 1 x 10^6 CFU/ml and 50 µl of this suspension was added to each well. The highest concentrations were then 512 µg/ml peptide and 2% DMSO. The plates were incubated at the preferred growth temperature of the organism that was used and 250 rpm. […] When […]
(§5) determining the MICs of the lipidated peptides, the lipopeptides were first dissolved in DMSO and diluted with TSB so that the peptide concentration was 128 µg/ml and the DMSO concentration was 4%. After inoculation the highest peptide concentration evaluated was 64 µg/ml and the DMSO concentration was 2%. A DMSO control was tested for each strain to ensure the DMSO did not affect the growth of the particular strain. […]
(§6) 4.4 Antagonization assays
(§7) Stock solutions of each peptide antibiotic were prepared so that their final concentration in the assay would be 4x MIC. Peptides were transferred to a 96 wells plate and lipid II or C15-P (farnesyl-phosphate) was added at 4 molar equivalents in a final volume of 50 µl. Each well received 50 µl of bacterial suspension (M. luteus) at 1 x 10^6 CFU/ml and the plates were incubated for 16 h at 250 rpm and 30°C. Growth was observed visually (see supplemental table S10 for results).

C55-PP = assay: Antagonization assay with C55-PP; format: cell-based, M. luteus; parameters: key to Result with antagonist C55-PP: +: antagonization of antibiotic activity; -: no antagonization of antibiotic activity; conditions: for Result with antagonist C55-PP: Supplemental table S10, peptide at 4x MIC, M. luteus, 16 h at 30°C, growth observed visually; for Effect of adding C55-PP on antibiotic activity: antagonization experiment using C55-PP
Experimental: as §1, §2, §3, §4, §5, §6, §7

E. faecium E980 = assay: UDP-MurNAc-pentapeptide accumulation assay; format: cell-based, Enterococcus faecium; conditions: E. faecium E980, peptides at 10x MIC, 30 min, chloramphenicol 130 µg/ml pre-treatment, LCMS; triplicate measurements
Experimental: We next examined the effect of the optimized P8-D-(S6R, R15A)-C10 lipopeptide on cell wall biosynthesis in live bacteria. Specifically, we employed an assay where the accumulation of the soluble intracellular lipid II precursor UDP-MurNAc-pentapeptide is measured in response to antibiotic administration. Antibiotics known to interfere with cell wall biosynthesis by sequestration of lipid II (i.e. vancomycin) can lead to UDP-MurNAc-pentapeptide accumulation in the cytosol which can then be extracted and assessed by chromatographic means.[18],[33] […] The effect of the lipopeptides on bacterial cell morphology was further investigated using scanning electron microscopy. To this end, VRE 155 cells were imaged after exposure to either P8-D-(S6R, R15A)-C10 or nisin at 2× the MIC.
as §2, §3
MIC values were determined by using the broth microdilution method. […]
as §5, with “2%.” for “2%. A DMSO control was tested for each strain to ensure the DMSO did not affect the growth of the particular strain.”
Hemolysis was determined by measuring the absorption at 414 nm to measure the amount of free […]

[1] = Supplemental table S9, MIC values of Table 2 expressed in µM
[2] = Table 2, broth microdilution in TSB, 16 h, read visually, highest tested 64 µg/ml, 2% DMSO

Row | Compound | MIC M. luteus (NCTC2665) (M. luteus (NCTC2665); [1]) [µM] | MIC M. luteus (NCTC2665) (M. luteus (NCTC2665); [2]) [μg mL^–1] | Result with antagonist Lipid II (lipid II) | Effect of pre-incubation with lipid II on antibacterial activity (lipid II) | Result with antagonist C55-PP (C55-PP) | Effect of adding C55-PP on antibiotic activity (C55-PP) | Accumulation of UDP-MurNAc-pentapeptide (E. faecium E980)
1 | CCCCCCCCCCNC(=O)CNC(=O)[C@H]1CSCc2cc3cc(c2)CSC[C@@H](NC(=O)[C@@H](CC(C)C)NC(=O)[C@@H](CC(C)C)NC(=O)[C@@H](CCCNC(=N)N)NC(=O)[C@@H](CCC(N)=O)NC(=O)[C@@H](CC(C)C)NC(=O)[C@@H](CC(C)C)NC(=O)[C@H](NC(=O)[C@@H](C)N)CSC3)C(=O)N2CCC[C@@H]2C(=O)N[C@H](Cc2ccc(O)cc2)C(=O)N[C@H](CO)C(=O)N[C@H]([C@H](C)O)C(=O)N[C@H](Cc2c[nH]cn2)C(=O)N[C@H](C)C(=O)N1 [P8-D-(S6R, R15A)-C10] (H-[dA][dC][dL][dL][dQ][dR][dL][dL][dC][dP][dY][dS][dT][dH][dA][dC]G-NHDecyl; linker 2-9-16 via TBMB; N-terminus assumed) | 3.8 (≈ 7.99 µg/mL) | 4 | + | antagonization of antibacterial activity | + | complete loss of antibiotic activity | significant accumulation
2 | CCCCCCCCCCNC(=O)CNC(=O)[C@@H]1CSCc2cc3cc(c2)CSC[C@H](NC(=O)[C@H](CC(C)C)NC(=O)[C@H](CC(C)C)NC(=O)[C@H](CCCNC(=N)N)NC(=O)[C@H](CCC(N)=O)NC(=O)[C@H](CC(C)C)NC(=O)[C@H](CC(C)C)NC(=O)[C@@H](NC(=O)[C@H](C)N)CSC3)C(=O)N2CCC[C@H]2C(=O)N[C@@H](Cc2ccc(O)cc2)C(=O)N[C@@H](CO)C(=O)N[C@@H]([C@@H](C)O)C(=O)N[C@@H](Cc2c[nH]cn2)C(=O)N[C@@H](C)C(=O)N1 [P8-L-(S6R, R15A)-C10] (H-ACLLQRLLCPYSTHACG-NHDecyl; linker 2-9-16 via TBMB; N-terminus assumed) | 3.8 (≈ 7.99 µg/mL) | 4 | + | effectively antagonized | + | complete loss of antibiotic activity | significant accumulation
